Experimental data published in publication PMC6508583 (Journal of the American Chemical Society, 2019).
In brackets after ≈: the same amount, converted by molar mass. Where two headings read alike, the source gives them in different places.

Experiments:
[1] = tested on: wild-type bacterial ribosome; assay: Cell-free translation assay, wild-type bacterial ribosome; format: biochemical; details: in vitro translation inhibition
[2] = tested on: Mit13 hybrid ribosome (decoding A site of the human mitochondrial ribosome); format: biochemical; details: for Selectivity Mit 13: Mit13 over wt bacterial ribosome; for IC50 Mit13: in vitro translation inhibition, Mit13 hybrid ribosome
[3] = tested on: A1555G mutant mitochondrial hybrid ribosome; format: biochemical, human; details: for Selectivity A1555G: A1555G over wt bacterial ribosome; for IC50 A1555G: in vitro translation inhibition, A1555G mutant mitochondrial hybrid ribosome
[4] = tested on: Cyt14 hybrid ribosome (decoding A site of the human cytoplasmic ribosome); format: biochemical; details: for Selectivity Cyt14: Cyt14 over wt bacterial ribosome; for IC50 Cyt 14: in vitro translation inhibition, Cyt14 hybrid ribosome
[5] = tested on: MRSA; assay: Antibacterial activity against reference strains: MRSA; format: cell-based; details: for MIC: Staphylococcus aureus, MRSA; for Antibacterial activity (MIC) MRSA AG038: strain AG038; for Antibacterial activity (MIC) MRSA AG042: strain AG042 carries the AAC(6)’, ANT(4’,4’’) and APH(3’) genes
[6] = tested on: E. cloacae; assay: Antibacterial activity against reference strains: E. cloacae; format: cell-based; details: for MIC: Enterobacter cloacae, read-out: Antibacterial activity (MIC) E. cloacae AG290; for Antibacterial activity (MIC) E. cloacae AG290: strain AG290
[7] = tested on: E. coli carrying specific resistance determinants; assay: Activity against wild-type and engineered E. coli carrying specific AMEs or RMTs; format: cell-based; details: for MIC: Escherichia coli
[8] = tested on: E. coli clinical isolates carrying two or more resistance determinants; assay: Activity against E. coli clinical isolates with multiple resistance determinants; format: cell-based; details: Escherichia coli
[9] = tested on: E. cloacae clinical isolates carrying two or more resistance determinants; format: cell-based; details: Enterobacter cloacae
[10] = tested on: E. coli; assay: Antibacterial activity against reference strains: E. coli; details: for MIC: Escherichia coli; for Antibacterial activity (MIC) E. coli AG003: strain AG003 carries the AAC(3) gene
[11] = tested on: E coli 70S ribosome (helix 44, A1408); assay: Quantitative dimethyl sulfate footprinting of the 70S ribosome; format: binding; details: read-out: apparent Kd; DMS footprinting, % protection of N1 of A1408, E. coli 70S ribosome
[12] = tested on: Mycobacterium abscessus; assay: microbe, parasite or virus in culture; format: cell-based; details: Mycobacteroides abscessus
[13] = tested on: Mycobacterium tuberculosis clinical isolates; assay: microbe, parasite or virus in culture; format: cell-based; details: Mycobacterium tuberculosis, read-out: MIC M. tuberculosis clinical isolates
[14] = tested on: K. pneumoniae; assay: Antibacterial activity against reference strains: K. pneumoniae; format: cell-based; details: strain AG215
[15] = tested on: A. baumannii; assay: Antibacterial activity against reference strains: A. baumannii; format: cell-based; details: strain AG225
[16] = tested on: P. aeruginosa; assay: Antibacterial activity against reference strains: P. aeruginosa
[17] = read-out: Antibacterial activity (MIC) MRSA AG038
[18] = read-out: Antibacterial activity (MIC) MRSA AG042
[19] = read-out: Activity (MIC) E. coli AG006
[20] = read-out: Activity (MIC) E. coli AG007
[21] = read-out: Activity (MIC) E. coli AG008
[22] = read-out: Activity (MIC) E. coli AG009
[23] = read-out: Activity (MIC) E. coli AG036
[24] = read-out: Activity (MIC) E. coli AG103
[25] = read-out: Activity (MIC) E. coli AG105
[26] = read-out: Activity (MIC) E. coli AG166
[27] = read-out: Antibacterial activity (MIC) E. coli AG001
[28] = read-out: Antibacterial activity (MIC) E. coli AG003

Row | SMILES | IC50 wt [1] | Selectivity Mit 13 [2] | IC50 Mit13 [2] | Selectivity A1555G [3] | IC50 A1555G [3] | Selectivity Cyt14 [4] | IC50 Cyt 14 [4] | MIC [5, 17] | MIC [5, 18] | MIC [6] | MIC [7, 19] | MIC [7, 20] | MIC [7, 21] | MIC [7, 22] | MIC [7, 23] | MIC [7, 24] | MIC [7, 25] | MIC [7, 26] | MIC [10, 27] | MIC [10, 28] | other results
1 | NCC[C@H](O)C(=O)N[C@@H]1C[C@H](N)[C@@H](O[C@H]2O[C@H](CN)[C@@H](O)[C@H](O)[C@H]2O)[C@H](O)[C@H]1O[C@H]1O[C@H](CO)[C@@H](O)[C@H](N)[C@H]1O [Amikacin] | 0.02 µg/mL (≈ 0.0342 µM) | 600 | 12 µg/mL (≈ 20.5 µM) | 21 | 0.42 µg/mL (≈ 0.717 µM) | 4500 | 90 µg/mL (≈ 154 µM) | 4 µg/mL (≈ 6.83 µM) | 16 to 32 µg/mL (≈ 27.3 to 54.6 µM) | 1 µg/mL (≈ 1.71 µM) | 1 to 2 µg/mL (≈ 1.71 to 3.42 µM) | 2 µg/mL (≈ 3.42 µM) | 1 to 2 µg/mL (≈ 1.71 to 3.42 µM) | 32 µg/mL (≈ 54.6 µM) | 4 to 8 µg/mL (≈ 6.83 to 13.7 µM) | > 128 µg/mL | 2 µg/mL (≈ 3.42 µM) | 2 µg/mL (≈ 3.42 µM) | 2 µg/mL (≈ 3.42 µM) | 2 µg/mL (≈ 3.42 µM) | MIC ([8]; read-out: Activity (MIC) E. coli isolate 201430298): 8 µg/mL (≈ 13.7 µM); MIC ([8]; read-out: Activity (MIC) E. coli isolate 201441114): 64 µg/mL (≈ 109 µM); MIC ([8]; read-out: Activity (MIC) E. coli isolate 2014251408): 64 µg/mL (≈ 109 µM); MIC ([8]; read-out: Activity (MIC) E. coli isolate 2014405344): > 256 µg/mL; MIC ([9]; read-out: Activity (MIC) E. cloacae isolate 201333207): 16 µg/mL (≈ 27.3 µM); MIC ([9]; read-out: Activity (MIC) E. cloacae isolate 201385168): > 256 µg/mL; MIC ([9]; read-out: Activity (MIC) E. cloacae isolate 201430601): 8 µg/mL (≈ 13.7 µM); MIC ([9]; read-out: Activity (MIC) E. cloacae isolate 201435487): 4 µg/mL (≈ 6.83 µM)
2 | NC[C@@H]1O[C@H](O[C@H]2[C@@H](O)[C@H](O[C@@H]3[C@@H](O)[C@H](N)C[C@H](N)[C@H]3O[C@H]3O[C@H](CO)[C@@H](O)[C@H](O)[C@H]3N)O[C@@H]2CO)[C@H](N)[C@@H](O)[C@@H]1O [Compound 1, paromomycin, reference compound] | 0.02 µg/mL (≈ 0.0325 µM) | 2500 | 50 µg/mL (≈ 81.2 µM) | 270 | 5.4 µg/mL (≈ 8.77 µM) | 470 | 9.4 µg/mL (≈ 15.3 µM) | 4 µg/mL (≈ 6.5 µM) | > 256 µg/mL | 2 µg/mL (≈ 3.25 µM) | 1 to 2 µg/mL (≈ 1.62 to 3.25 µM) | 4 µg/mL (≈ 6.5 µM) | 2 to 4 µg/mL (≈ 3.25 to 6.5 µM) | 4 µg/mL (≈ 6.5 µM) | 32 to 64 µg/mL (≈ 52 to 104 µM) | 4 µg/mL (≈ 6.5 µM) | 2 µg/mL (≈ 3.25 µM) | > 128 µg/mL | 2 to 4 µg/mL (≈ 3.25 to 6.5 µM) | 8 to 16 µg/mL (≈ 13 to 26 µM) | Kd [11]: 590 ± 50 nM; MIC ([12]; read-out: MIC M. abscessus): 64 µg/mL (≈ 104 µM); MIC ([12]; read-out: MIC M. abscessus, AAC(2’) gene deleted): 16 µg/mL (≈ 26 µM); MIC [13]: 2 to 4 µg/mL (≈ 3.25 to 6.5 µM)
3 | NC[C@@H]1O[C@H](O[C@H]2[C@@H](O)[C@H](O[C@@H]3[C@@H](O)[C@H](N)C[C@H](N)[C@H]3O[C@H]3O[C@H](CO)C[C@H](O)[C@H]3N)O[C@@H]2CO)[C@H](N)[C@@H](O)[C@@H]1O [Compound 2, 4’-deoxy paromomycin] | 0.05 µg/mL (≈ 0.0834 µM) | 1480 | 74 µg/mL (≈ 123 µM) | 480 | 24 µg/mL (≈ 40 µM) | 560 | 28 µg/mL (≈ 46.7 µM) |  |  |  |  |  |  |  |  |  |  |  |  |  | Antibacterial activity (MIC) MRSA AG038 [5]: 16 µg/mL; Antibacterial activity (MIC) MRSA AG042 [5]: 8 to 16 µg/mL; Antibacterial activity (MIC) K. pneumoniae AG215 [14]: 4 µg/mL; Antibacterial activity (MIC) E. cloacae AG290 [6]: 4 to 8 µg/mL; Antibacterial activity (MIC) A. baumannii AG225 [15]: 8 µg/mL; Antibacterial activity (MIC) E. coli AG003 [10]: 32 µg/mL
4 | CCOC1C(CO)OC(OC2C(N)CC(N)C(O)C2OC2OC(CO)C(OC3OC(CN)C(O)C(O)C3N)C2O)C(N)C1O (stereo not drawn) [Compound 3] | 0.08 µg/mL (≈ 0.124 µM) | 1075 | 86 µg/mL (≈ 134 µM) | 1188 | 95 µg/mL (≈ 148 µM) | 1100 | 88 µg/mL (≈ 137 µM) |  |  |  |  |  |  |  |  |  |  |  |  |  | Antibacterial activity (MIC) MRSA AG038 [5]: 8 to 16 µg/mL; Antibacterial activity (MIC) MRSA AG042 [5]: 8 to 16 µg/mL; Antibacterial activity (MIC) K. pneumoniae AG215 [14]: 8 µg/mL; Antibacterial activity (MIC) E. cloacae AG290 [6]: 8 µg/mL; Antibacterial activity (MIC) A. baumannii AG225 [15]: 16 to 32 µg/mL; Kd [11]: 1030 ± 200 nM; Activity (MIC) E. coli AG006 ([7]; strain AG006, WT): 8 to 16 µg/mL; Activity (MIC) E. coli AG007 ([7]; strain AG007, AAC(3)): 16 to 32 µg/mL; Activity (MIC) E. coli AG008 ([7]; strain AG008, ANT(2’’)): 8 µg/mL; Activity (MIC) E. coli AG009 ([7]; strain AG009, AAC(6’)): 16 µg/mL; Activity (MIC) E. coli AG036 ([7]; strain AG036, ANT(4′,4′′)): 8 to 16 µg/mL; Activity (MIC) E. coli AG103 ([7]; strain AG103, armA): ≥64 µg/mL; Activity (MIC) E. coli AG105 ([7]; strain AG105, AAC(2′)): 8 to 16 µg/mL; Activity (MIC) E. coli AG166 ([7]; strain AG166, APH(3′)): 64 µg/mL; Antibacterial activity (MIC) E. coli AG001 ([10]; strain AG001): 16 µg/mL; Antibacterial activity (MIC) E. coli AG003 [10]: 32 µg/mL; Antibacterial activity (MIC) P. aeruginosa AG031 ([16]; strain AG031 carries the APH(3’) gene): >64 µg/mL; Antibacterial activity (MIC) P. aeruginosa AG220 ([16]; strain AG220 carries the APH(3’) gene): >64 µg/mL
